# Measurements reported in the NIST ThermoML archive (doi:10.1016/j.fluid.2008.08.015).
# Numbers after ± are expanded uncertainties.
# Settings: 295 K; for surface tension liquid-gas: Maximal bubble pressure; for mass density / viscosity: 101.33 kPa, Liquid; for mass density: Buoyancy - hydrostatic balance with magnetic suspension - one sinker; for viscosity: Concentric cylinders viscometry
surface tension liquid-gas,mass density,viscosity,Structure (SMILES)
47.95 ± 2.4 mN/m,1120.7 ± 22 kg/m3,21.26 ± 3.1 mPa·s,"OCCO [1,2-ethanediol]"
62.87 ± 1.4 mN/m,1267.4 ± 25 kg/m3,1499.5 ± 190 mPa·s,OCC(O)CO [glycerol]
